Experimental data as given in ChEMBL document CHEMBL3507680, “University of Dundee, Gates Library screen for HepG2 cell viability”.

Test: Human HepG2 cell viability assay in 384 well format
Format: toxicity, cell-based
Design: dose 125 nL, time 70.5 hour; concentration not given beside the values
Conditions: HepG2 cells, read-out: Inhibition

## O=c1c2ccccc2nc2n1C(CSc1ccc(Cl)cc1)CN2 (stereo not drawn)
  cytotoxicity at 70.5 h: 2.49%

## COC(=O)c1ccc(Cn2nc(C)cc2C)cc1
  cytotoxicity at 70.5 h: 12.9%

## Cc1cccc(CNC(=O)CC2CCN(Cc3ccccn3)CC2)n1
  cytotoxicity at 70.5 h: -1.17%

## Cn1cc(CN2CCCCC2c2ccc(-c3cccc(F)c3)nc2)cn1 (stereo not drawn)
  cytotoxicity at 70.5 h: -1.71%

## Cc1cc(C(=O)N2CCC(O)(Cn3ccc4ccncc43)CC2)on1
  cytotoxicity at 70.5 h: 17.8%

## Cc1cc2ccncc2n1CC1(O)CCN(C(=O)c2ccncc2)CC1
  cytotoxicity at 70.5 h: -1.76%

## O=C(NCc1ccccc1)NCc1nc(-c2ccncc2)n[nH]1
  cytotoxicity at 70.5 h: -3.14%

## CN1C[C@@H](C(=O)NC(C)(C)C)[C@@]2(CCc3ccccc3C(=O)N2)C1
  cytotoxicity at 70.5 h: 0.823%

## CN1C[C@@H](C(=O)NCC(F)(F)F)[C@@]2(CCc3ccccc3C(=O)N2)C1
  cytotoxicity at 70.5 h: 3.97%

## CS(=O)(=O)NC1(CCc2ccc(NC(=O)C3CC3)nc2)CCCCC1
  cytotoxicity at 70.5 h: 15%

## Cc1csc2c(C3CCCN(C(=O)Cn4cncn4)C3)nc(C)n12 (stereo not drawn)
  cytotoxicity at 70.5 h: -1.76%

## CC(C(N)=O)n1nc(-c2cccs2)cc(N)c1=O (stereo not drawn)
  cytotoxicity at 70.5 h: -3.21%

## CC(C(=O)NC1CC1)n1nc(-c2cccs2)cc(N)c1=O (stereo not drawn)
  cytotoxicity at 70.5 h: 6.89%

## Nc1nc(SCc2ccc3c(c2)OCO3)ns1
  cytotoxicity at 70.5 h: -0.0923%

## O=C(Cn1cnc2cc3c(cc21)OCCCO3)NCCc1ccccc1
  cytotoxicity at 70.5 h: 0.395%

## CC(C)N1CCCC1c1nc(N(C)C)ncc1I (stereo not drawn)
  cytotoxicity at 70.5 h: -4.13%

## Nc1nccnc1C1CN(C(=O)COc2cccnc2)CCO1 (stereo not drawn)
  cytotoxicity at 70.5 h: 6.29%

## COCCN1CCC(C)(c2cc(O)[nH]n2)CC1
  cytotoxicity at 70.5 h: -3.06%

## CCNC(=O)C1(Cc2cc(-c3ccccc3)no2)CCCN(C(C)C)C1 (stereo not drawn)
  cytotoxicity at 70.5 h: -6.54%

## O=C(c1ccc2[nH]nnc2c1)N1C[C@H](O)[C@]2(CCCO2)C1
  cytotoxicity at 70.5 h: -1.24%

## CO[C@H]1CCN(C(=O)c2ccc3[nH]nnc3c2)C[C@@]12CCCO2
  cytotoxicity at 70.5 h: -6.86%

## O=c1c2ccccc2nc2n1C(CSc1cccc(C(F)(F)F)c1)CN2 (stereo not drawn)
  cytotoxicity at 70.5 h: -2.38%

## CN1CCN(c2ncccc2N)CC1
  cytotoxicity at 70.5 h: -11.7%

## COc1nccc(C(F)(F)F)c1C(=O)O
  cytotoxicity at 70.5 h: 0.892%

## COC(=O)Cc1cn2cc(C(F)(F)F)ccc2n1
  cytotoxicity at 70.5 h: 13.2%

## CCOC(=O)[C@H]1CNC[C@@H]1C(F)(F)F
  cytotoxicity at 70.5 h: -11.1%

## O=c1[nH]c2ncccc2n1C1CCCCC1
  cytotoxicity at 70.5 h: -6.95%

## O=C(O)c1cn2cc(C(F)(F)F)ccc2n1
  cytotoxicity at 70.5 h: 2.77%

## CC(O)c1cn(Cc2ccc(Cl)cc2)nn1 (stereo not drawn)
  cytotoxicity at 70.5 h: -6.41%

## CN(C)c1nc2ncc(Cl)cc2cc1C#N
  cytotoxicity at 70.5 h: 22%

## Cc1cc(CN(C)Cc2ncc(C(C)(C)C)o2)no1
  cytotoxicity at 70.5 h: 18.2%

## Cc1ccc(CN(C)Cc2ncc(C(C)(C)C)o2)o1
  cytotoxicity at 70.5 h: 0.445%

## N#CCCN1CCN(S(=O)(=O)c2ccc(Cl)s2)CC1
  cytotoxicity at 70.5 h: 15.9%

## O=C(NCc1nnc2n1CCCCC2)N(CC1CCOC1)C1CC1 (stereo not drawn)
  cytotoxicity at 70.5 h: 17.7%

## O=S(=O)(c1ccc(F)cc1Cl)N1CCCC1c1ccncc1 (stereo not drawn)
  cytotoxicity at 70.5 h: -6.79%

## COc1c(CNCCc2c[nH]c3cc(F)ccc23)c(C)nn1C
  cytotoxicity at 70.5 h: 3.85%

## COc1c(CNCCc2c[nH]c3ccccc23)c(C)nn1C
  cytotoxicity at 70.5 h: 22.7%

## CN(CCCOc1ccccc1)C(=O)c1csc(-c2nnc[nH]2)n1
  cytotoxicity at 70.5 h: -5.84%

## Cn1cc(C2CCCN2C(=O)c2cnc(C3CC3)s2)cn1 (stereo not drawn)
  cytotoxicity at 70.5 h: -5%

## Cn1cc(C2CCCN2C(=O)c2cnc(-c3ccccn3)s2)cn1 (stereo not drawn)
  cytotoxicity at 70.5 h: 3.12%

## COc1cccc(CN(C)C(=O)c2csc(-c3nnc[nH]3)n2)c1
  cytotoxicity at 70.5 h: -1.87%

## COc1ccc(Br)cc1SCCCS(C)(=O)=O
  cytotoxicity at 70.5 h: -0.49%

## N#CCCn1cnc2c(F)cc(Br)cc2c1=O
  cytotoxicity at 70.5 h: -3.98%

## COCCn1cnc2c(F)cc(Br)cc2c1=O
  cytotoxicity at 70.5 h: -3.14%

## CC1c2ccc(F)cc2CCN1C(=O)c1nc(=O)[nH][nH]1 (stereo not drawn)
  cytotoxicity at 70.5 h: -6.25%

## N#CCCCn1cnc2c(F)cc(Br)cc2c1=O
  cytotoxicity at 70.5 h: -5.69%

## N#CC(NC(=O)CCCOc1cccnc1)c1ccccc1Cl (stereo not drawn)
  cytotoxicity at 70.5 h: -3.34%

## Cc1cc(CN(C)Cc2ncc(-c3ccccc3)o2)no1
  cytotoxicity at 70.5 h: -0.145%

## CN(CC1CCOC1)c1ccc(Br)cn1 (stereo not drawn)
  cytotoxicity at 70.5 h: 29.9%

## COc1c(CNCCc2c[nH]c3ccccc23)c(C(C)C)nn1C
  cytotoxicity at 70.5 h: 2.12%

## Cc1ccc(-c2nc(CCNCc3ccncc3)co2)cc1
  cytotoxicity at 70.5 h: -6.27%

## CC(C)N(C)CC(=O)NCc1ccccc1N1CCN(C)CC1
  cytotoxicity at 70.5 h: 9.3%

## CCCN(CCn1c(=O)oc2ccccc21)CC1CC1
  cytotoxicity at 70.5 h: 1.08%

## CCOC(=O)CCN(Cc1cccnc1)C(=O)c1cc(Cl)c[nH]1
  cytotoxicity at 70.5 h: -6.02%

## CN1CCN(c2ccccc2CNC(=O)Cc2cccc(F)c2)CC1
  cytotoxicity at 70.5 h: 9.04%

## CN1CCN(c2ccccc2CNC(=O)CSC(F)(F)F)CC1
  cytotoxicity at 70.5 h: -6.98%

## O=C(c1c[nH]nn1)N1CCCC1C1CCCCC1 (stereo not drawn)
  cytotoxicity at 70.5 h: -8.52%

## CCc1nnsc1C(=O)NCCc1nnc2n1CCC2
  cytotoxicity at 70.5 h: -7.69%

## COC1CCN(c2ccc(NC(=O)C3CC3)cc2C(F)(F)F)CC1
  cytotoxicity at 70.5 h: -4.49%

## N#CCCN(Cc1cccnc1)C(=O)c1cc(Cl)c[nH]1
  cytotoxicity at 70.5 h: -7.86%

## Cc1cnn(CC(C)NCc2ccc(C#N)cc2F)c1 (stereo not drawn)
  cytotoxicity at 70.5 h: -4.59%

## CC(C)N(C(=O)Cn1nnnc1CCc1ccccc1)C(C)C
  cytotoxicity at 70.5 h: 10.7%

## O=C(Nc1nncs1)C1CSCN1C(=O)C1CCCC1 (stereo not drawn)
  cytotoxicity at 70.5 h: -3.88%

## Brc1csc(-c2noc(C3COCCO3)n2)c1 (stereo not drawn)
  cytotoxicity at 70.5 h: 0.61%

## Cc1ccc(S(=O)(=O)Nc2ccc(C)c(C(=O)O)c2)s1
  cytotoxicity at 70.5 h: -0.348%

## COCCNC(=O)N1CCSC2(CCCCC2)C1
  cytotoxicity at 70.5 h: -4.21%

## Cc1ccc(N2CCC(Nc3ccc4nnc(C)n4n3)CC2)nc1
  cytotoxicity at 70.5 h: -1.55%

## CC(C)(C)c1nc(CN(Cc2ccccc2Cl)C2CCCC2)no1
  cytotoxicity at 70.5 h: -2.25%

## CCc1cc(N2CCC(Nc3ccc4nnc(C)n4n3)CC2)ncn1
  cytotoxicity at 70.5 h: 2.09%

## O=C(c1cc[nH]n1)N1CCc2cc(Br)sc2C1
  cytotoxicity at 70.5 h: 15.1%

## O=S(=O)(Cc1ccccc1)CC(O)Cn1cccn1 (stereo not drawn)
  cytotoxicity at 70.5 h: -2.14%

## CC(=O)NCCNC(=O)Nc1cc(C(C)(C)C)sc1C#N
  cytotoxicity at 70.5 h: -1.29%

## O=C(c1ccc(=O)[nH]n1)N1CCCC1C1CCCC1 (stereo not drawn)
  cytotoxicity at 70.5 h: -0.243%

## CCc1ncnc(N2CCCC(c3cc(C(N)=O)[nH]n3)C2)c1F (stereo not drawn)
  cytotoxicity at 70.5 h: -3.89%

## CC(C)c1cc(Br)ccc1NC(=O)NC(C)(CO)CO
  cytotoxicity at 70.5 h: -5%

## CCOCCSc1nnc(Cc2ccccc2F)o1
  cytotoxicity at 70.5 h: -0.117%

## Cc1cnn(CC(C)NCc2cccc(C#N)c2)c1 (stereo not drawn)
  cytotoxicity at 70.5 h: 2.17%

## Cc1cnn(CC(C)NCc2cc(C#N)ccc2F)c1 (stereo not drawn)
  cytotoxicity at 70.5 h: -5.57%

## COCCOCCSc1nnc(Cc2ccccc2F)o1
  cytotoxicity at 70.5 h: -4.09%

## COc1ccc(C(C)NCc2ccnn2C)cc1Cn1cccn1 (stereo not drawn)
  cytotoxicity at 70.5 h: -6.58%

## Cc1ncccc1-c1cc2cccnc2n1CCCNC(=O)C1CC1
  cytotoxicity at 70.5 h: 1.77%

## CCOC(=O)[C@H]1CNC[C@H]1C(=O)OCC
  cytotoxicity at 70.5 h: -2.7%

## COCc1nc(-c2ccnc(N3CCNCC3)n2)no1
  cytotoxicity at 70.5 h: 2.75%

## CC(C)Cc1nc(-c2ccnc(N3CCNCC3)n2)no1
  cytotoxicity at 70.5 h: -7.21%

## O=c1[nH]c2ncccc2n1C1CCNCC1
  cytotoxicity at 70.5 h: -11%

## COc1ccc(CN(Cc2ccccn2)Cc2cncn2C)cc1
  cytotoxicity at 70.5 h: -1.37%

## CCn1nc(C)c(CN(CCCOC)Cc2ccccn2)c1C
  cytotoxicity at 70.5 h: 8.89%

## Cc1c[nH]nc1C1CCCN1Cc1ncc[nH]1 (stereo not drawn)
  cytotoxicity at 70.5 h: -2.22%
